Patent publication US7776849B2, “Benzenoid ansamycin derivative” (Kyowa Hakko Kirin Co., Ltd., priority 2005, dated 2010)

Assays:
[1] = biological target: T1, Human N-terminal recombinant Hsp90 protein (region of amino acids 9 to 236) (Homo sapiens, UniProt P07900); experiment: Hsp90 protein binding assay (competition with biotinylated Radicicol, time-resolved fluorescence); details: immobilized Hsp90, biotinylated Radicicol 0.1 μmol/L, 24° C.; read-out: concentration inhibiting the binding of biotinylated Radicicol to the Hsp90 protein by 50% or more
T1 construct: Human N-terminal recombinant Hsp90 protein (region of amino acids 9 to 236); made in house
Description: Hsp90 Protein Binding Assay
Human N-terminal recombinant Hsp90 protein (region of amino acids 9 to 236) prepared according to the method described in “Cell”, 1997, Vol. 89, p. 239-250 was diluted to 1 μg/mL with Tris-buffered saline (TBS, pH 7.5) and added to each well of a 96-well ELISA assay plate (Greiner) in an amount of 70 μL/well. The plate was incubated overnight at 4° C. to obtain the solid phase.
The supernatant was removed, and Tris-buffered saline containing 1% bovine serum albumin (BSA) was added in an amount of 350 μL/well for blocking.
After the blocking solution was removed, each resulting solid phase was washed by the addition of Tris-buffered saline containing 0.05% Tween 20 (TBST) in an amount of 350 μL/well. This washing procedure was repeated three times. […]
Enhancement solution (Wallac Oy) was added thereto in an amount of 100 μL/well and color developing reaction was carried out at room temperature for 5 minutes, followed by measurement of time-resolved fluorescence (excitation wavelength: 340 nm, measurement wavelength: 615 nm) using Multilabel Counter (ARVO 1420, Wallac Oy).
The binding rate in each well treated the test compound was calculated from the time-resolved fluorescence measured for each well based on the time-resolved fluorescence measured with the positive control taken as 100% binding rate and that with the negative control taken as 0% binding rate.

[2] = test system: human chronic myelocytic leukemia K562 cells; experiment: Growth inhibition test on human chronic myelocytic leukemia K562 cells (WST-1); assay type: cell-based; details: 72 hours, read-out: 50% growth inhibitory concentration (GI50)
Description: Growth Inhibition Test on Human Chronic Myelocytic Leukemia K562 Cells
First, 1,500 cells of human chronic myelocytic leukemia K562 were inoculated into each well of a 96-well microplate (manufactured by Nunc Corp.), and using RPMI1640 medium containing 10% fetal calf serum (FCS), preculturing was performed in a 5% carbon dioxide incubator at 37° C. for 5 hours. A DMSO solution of each test compound prepared in a concentration of 10 mmol/L was stepwise diluted with the culture medium and added thereto in a total amount of 100 μL/well. The resulting wells were further cultured in the 5% carbon dioxide incubator at 37° C. for 72 hours. […] Using a microplate spectrophotometer (SpectraMax 340PC384; manufactured by Molecular Devices), the absorbance of each well was measured at 450 nm and 655 nm. […] The value obtained by subtracting the absorbance at 655 nm from the absorbance at 450 nm (absorbance difference) was calculated for each well. The absorbance difference obtained from cells untreated with any of the test compounds was designated as 100%. The absorbance difference obtained from cells treated with the compounds at the test concentrations was compared. […]

| Compound | IC50 [1] | GI50 [2] |
| --- | --- | --- |
| COC1/C=C\C=C(/C)C(=O)Nc2cc(O)cc(c2O)C(OC)C(C)CC(OC)C(OC)C(C)/C=C(\C)C1OC(N)=O (stereo not drawn) [Compound 1] | ≤ 10 µM |  |
| COC1C=CC=C(C)C(=O)Nc2cccc(c2O)C(OC)C(C)CC(OC)C(OC)C(C)C=C(C)C1OC(N)=O (stereo not drawn) [Compound 2] | ≤ 10 µM | ≤ 10 µM |
